# Laboratory results: paper PMC10108392, “Rimonabant-Based Compounds Bearing Hydrophobic Amino Acid Derivatives as Cannabinoid Receptor Subtype 1 Ligands” (ACS Medicinal Chemistry Letters, 2023)
# Assays:
# CB1R [1] = biological target: T1, CB1R (Rattus norvegicus, UniProt P20272); assay: [3H]WIN55,212-2 radioligand competition binding assay in rat brain membrane homogenate; conditions: for Ki [3H]WIN55,212-2 binding: 5 nM [3H]WIN55,212-2, ± SEM, n.b. = no binding of ligands was observed; for Ki: read-out: Ki [3H]WIN55,212-2 binding, 5 nM [3H]WIN55,212-2, ± SEM, n.b. = no binding of ligands was observed
# T1 construct: Crude membrane fractions were prepared from the brain; from tissue; host or cells: Wistar rat whole brain, crude membrane fraction
# T1 sequence (P20272 whole entry): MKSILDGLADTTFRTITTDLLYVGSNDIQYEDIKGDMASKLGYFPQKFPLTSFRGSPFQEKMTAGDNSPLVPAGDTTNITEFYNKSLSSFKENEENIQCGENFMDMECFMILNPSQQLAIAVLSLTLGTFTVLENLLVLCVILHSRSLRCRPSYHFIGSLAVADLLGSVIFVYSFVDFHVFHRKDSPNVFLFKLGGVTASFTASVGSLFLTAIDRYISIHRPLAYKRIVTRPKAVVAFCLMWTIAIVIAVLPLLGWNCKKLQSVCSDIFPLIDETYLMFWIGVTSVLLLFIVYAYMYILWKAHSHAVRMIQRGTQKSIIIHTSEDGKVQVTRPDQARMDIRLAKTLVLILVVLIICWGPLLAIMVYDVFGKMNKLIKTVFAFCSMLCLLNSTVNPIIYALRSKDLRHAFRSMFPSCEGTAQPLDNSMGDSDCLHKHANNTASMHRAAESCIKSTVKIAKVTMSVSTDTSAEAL
# Procedure: (§1) Our novel chemical compounds were tested in vitro for their binding ability, efficacy, and potency on CB1R in rat brain membrane homogenate (Table 2 and SI, Figure S1). CB1Rs are the most abundant G-protein coupled receptors in the rodent and mammalian brain; therefore, this is an appropriate model to characterize our ligands in a more physiological system.
# (§2) In Vitro Biological Assays
# (§3) Preparation of Brain Membrane Homogenates
# (§4) Wistar rats were locally bred and handled according to the EU Directive 2010/63/EU and to the Regulations on Animal Protection (40/2013. (II. 14.) Korm. r.) of Hungary. Crude membrane fractions were prepared from the brain. Brains were quickly removed from the euthanized rats and directly put in an ice-cold 50 mM Tris-HCl buffer (pH 7.4). The collected tissue was then homogenized in 30 volumes (v/w) of an ice-cold buffer with a Braun Teflon-glass homogenizer at the highest rpm. The homogenate was centrifuged at 20,000 × g for 25 min, and the resulting pellet was suspended in the same volume of a cold buffer followed by incubation at 37 °C for 30 min to remove endogenous ligands. Centrifugation was then repeated. The final pellets were taken up in five volumes of a 50 mM Tris-HCl (pH 7.4) buffer containing 0.32 M sucrose and stored at -80 °C. Prior to the experiment, aliquots were thawed and centrifuged at 20,000 ×g for 25 min and then they were resuspended in 50 mM Tris-HCl (pH 7.4), homogenized with a Douncer, followed by the determination of the protein concentration by the method of Bradford. The membrane suspensions were immediately used either in radioligand binding experiments or in [35S]GTPγS functional assays.
# Radioligand Competition Binding Assay
# Binding experiments were performed at 30 °C for 60 min in a 50 mM Tris-HCl binding buffer (pH 7.4) containing 2.5 mM of EGTA, 5 mM of MgCl2 and 0.5 mg/mL of fatty acid-free BSA in plastic tubes in a total assay volume of 1 mL that contained 0.3-0.5 mg/mL of a membrane protein. Competition binding […]
# ligands. […] The incubation […]
# was terminated by diluting the samples with an ice-cold wash buffer (50 mM of Tris-HCl, 2.5 mM of EGTA, 5 mM of MgCl2, 0.5% fatty acid free BSA, pH 7.4), followed by repeated washing and rapid filtration through Whatman GF/B glass fiber filters (Whatman Ltd., Maidstone, UK) pre-soaked with 0.1% polyethyleneimine (30 min before the filtration). Filtration was performed with a 24-well Brandel Cell Harvester (Gaithersburg, MD, USA). Filters were air-dried and immersed into Ultima Gold MV scintillation cocktail, and then radioactivity was measured with a TRI-CARB 2100TR liquid scintillation analyzer (Packard, Perkin Elmer, Waltham, MA, USA). […]
# The results of the competition binding studies are reported as means ± S.E.M. of at least three independent experiments each performed in duplicate. In competition binding studies, the inhibitory constants (Ki) were calculated from the inflection points of the displacement curves using non-linear least-square curve fitting and the Cheng-Prusoff equation, Ki= […]/(1 + [ligand]/Kd). […]
# CB1R [2] = biological target: T1, CB1R; assay: Ligand stimulated [35S]GTPγS binding assay in rat brain membranes; assay type: biochemical; conditions: for EC50 / CB1R functional profile (agonist / antagonist / inverse agonist): rat brain membranes; for EC50: ± SEM, read-out: [35S]GTPγS stimulation EC50; for CB1R functional profile (agonist / antagonist / inverse agonist): from [35S]GTPγS binding; for Emax: read-out: [35S]GTPγS stimulation Emax
# Procedure: as §1, §2, §3
# as §4, with “assays. […]” for “assays.”
# was terminated by diluting the samples with an ice-cold wash buffer (50 mM of Tris-HCl, 2.5 mM of EGTA, 5 mM of MgCl2, 0.5% fatty acid free BSA, pH 7.4), followed by repeated washing and rapid filtration through Whatman GF/B glass fiber filters (Whatman Ltd., Maidstone, UK) pre-soaked with 0.1% polyethyleneimine (30 min before the filtration). Filtration was performed with a 24-well Brandel Cell Harvester (Gaithersburg, MD, USA). Filters were air-dried and immersed into Ultima Gold MV scintillation cocktail, and then radioactivity was measured with a TRI-CARB 2100TR liquid scintillation analyzer (Packard, Perkin Elmer, Waltham, MA, USA).
# Ligand Stimulated [35S]GTPγS Binding Assay
# Rat brain membranes (30 µg protein/tube), prepared as described above, were incubated with 0.05 nM of […]
# mM of NaCl, 3 mM of MgCl2 and 1 mM of EGTA in a 50 mM Tris-HCl buffer (pH 7.4) for 60 min at 30 °C. Basal [35S]GTPγS binding was measured in the absence of ligands and set as 100%. Nonspecific […]
# binding was determined by the addition of 10 µM unlabelled GTPγS and subtracted from total binding.
# Incubation, filtration and radioactivity measurements of the samples were carried out as described above. […]
# All […]
# data and curves were analyzed by GraphPad Prism 5.0 (San Diego, CA, USA).
SMILES,"Ki [3H]WIN55,212-2 binding (CB1R [1])",EC50 (CB1R [2]) [nM],Ki (CB1R [1]) [nM],CB1R functional profile (agonist / antagonist / inverse agonist) (CB1R [2]),Emax (CB1R [2]) [%]
"CC(C)[C@H](NC(=O)c1cc(-n2cccc2)n(-c2ccccc2)n1)C(=O)O [Compound 5, RS2708-Val-OH]",n.b.,1650 ± 75,–,–,–
"CC(C)(C)[C@H](NC(=O)c1cc(-n2cccc2)n(-c2ccc(Cl)cc2)n1)C(N)=O [Compound 12, RS2689-tLeu-NH2]",–,–,102 ± 16,–,–
"COC(=O)[C@@H](NC(=O)c1nn(-c2ccccc2)c(-n2cccc2)c1C)C(C)C [Compound 27, RS2709-Val-OCH3]",–,2080 ± 129,449 ± 15,–,–
"CC(C)[C@H](NC(=O)c1cc(-n2cccc2)n(-c2ccccc2)n1)C(N)=O [Compound 15, RS2708-Val-NH2]",n.b.,1230 ± 121,–,–,–
"CC(C)(C)[C@H](NC(=O)c1cc(-n2cccc2)n(-c2ccccc2)n1)C(N)=O [Compound 16, RS2708-tLeu-NH2]",–,295 ± 38,1470 ± 103,–,–
"CC(C)[C@H](NC(=O)c1cc(-n2cccc2)n(-c2ccc(Cl)cc2)n1)C(=O)O [Compound 1, RS2689-Val-OH]",n.b.,5870 ± 372,–,–,–
"COC(=O)[C@@H](NC(=O)c1cc(-n2cccc2)n(-c2ccccc2)n1)C(C)C [Compound 25, RS2708-Val-OCH3]",–,468 ± 22,1360 ± 16,–,–
"CC(C)(C)[C@H](NC(=O)c1cc(-n2cccc2)n(-c2ccccc2)n1)C(=O)O [Compound 6, RS2708-tLeu-OH]",n.b.,2450 ± 118,–,–,–
"CNC(=O)[C@@H](NC(=O)c1cc(-n2cccc2)n(-c2ccc(Cl)cc2)n1)C(C)C [Compound 31, RS2689-Val-NHCH3]",modest affinity,601 ± 21,387 ± 33,weak inverse agonist,–
"Cc1c(C(=O)N[C@H](C(N)=O)C(C)C)nn(-c2ccccc2)c1-n1cccc1 [Compound 17, RS2709-Val-NH2]",–,4240 ± 377,1060 ± 72,–,–
"CNC(=O)[C@@H](NC(=O)c1nn(-c2ccccc2)c(-n2cccc2)c1C)C(C)C [Compound 37, RS2709-Val-NHCH3]",modest affinity,7080 ± 398,1060 ± 85,weak inverse agonist,55 ± 9
"COC(=O)[C@@H](NC(=O)c1nn(-c2ccccc2)c(-n2cccc2)c1C)C(C)(C)C [Compound 28, RS2709-tLeu-OCH3]",–,1030 ± 117,369 ± 19,–,55 ± 5
"CC(C)[C@H](NC(=O)c1cc(-n2cccc2)n(-c2ccc(Cl)cc2)n1)C(N)=O [Compound 11, RS2689-Val-NH2]",–,1160 ± 79,341 ± 19,–,–
"CNC(=O)[C@@H](NC(=O)c1cc(-n2cccc2)n(-c2ccccc2)n1)C(C)(C)C [Compound 36, RS2708-tLeu-NHCH3]",–,–,616 ± 16,antagonists,–
"Cc1c(C(=O)N[C@H](C(=O)O)C(C)(C)C)nn(-c2ccccc2)c1-n1cccc1 [Compound 8, RS2709-tLeu-OH]",n.b.,3400 ± 118,–,–,–
"CNC(=O)[C@@H](NC(=O)c1nn(-c2ccccc2)c(-n2cccc2)c1C)C(C)(C)C [Compound 38, RS2709-tLeu-NHCH3]",–,–,42 ± 3.9,antagonists,102 ± 2
"CC(C)(C)[C@H](NC(=O)c1cc(-n2cccc2)n(-c2ccc(Cl)cc2)n1)C(=O)O [Compound 2, RS2689-tLeu-OH]",n.b.,712 ± 18,–,–,–
"CNC(=O)[C@@H](NC(=O)c1cc(-n2cccc2)n(-c2ccccc2)n1)C(C)C [Compound 35, RS2708-Val-NHCH3]",modest affinity,2460 ± 240,7940 ± 266,weak inverse agonist,–
"Cc1c(C(=O)N[C@H](C(=O)O)C(C)C)nn(-c2ccc(Cl)cc2Cl)c1-n1cccc1Cl [Compound 9, RS3516-Val-OH]",n.b.,3430 ± 283,–,–,–
"CNC(=O)[C@@H](NC(=O)c1nn(-c2ccc(Cl)cc2Cl)c(-n2cccc2Cl)c1C)C(C)C [Compound 39, RS3516-Val-NHCH3]",modest affinity,3540 ± 193,185 ± 17,weak inverse agonist,–
"Cc1c(C(=O)N[C@H](C(=O)O)C(C)(C)C)nn(-c2ccc(Cl)cc2)c1-n1cccc1 [Compound 4, RS2691-tLeu-OH]",–,4610 ± 303,5880 ± 152,–,–
"Cc1c(C(=O)N[C@H](C(N)=O)C(C)C)nn(-c2ccc(Cl)cc2)c1-n1cccc1 [Compound 13, RS2691-Val-NH2]",–,–,123 ± 13,–,–
"Cc1c(C(=O)N[C@H](C(=O)O)C(C)C)nn(-c2ccc(Cl)cc2)c1-n1cccc1 [Compound 3, RS2691-Val-OH]",n.b.,> 10000,–,–,–
"CNC(=O)[C@@H](NC(=O)c1cc(-n2cccc2)n(-c2ccc(Cl)cc2)n1)C(C)(C)C [Compound 32, RS2689-tLeu-NHCH3]",–,389 ± 51,42 ± 2.9,agonist,120 ± 2
"Cc1c(C(=O)N[C@H](C(=O)O)C(C)C)nn(-c2ccccc2)c1-n1cccc1 [Compound 7, RS2709-Val-OH]",n.b.,2550 ± 106,–,–,–
"CNC(=O)[C@@H](NC(=O)c1nn(-c2ccc(Cl)cc2Cl)c(-n2cccc2Cl)c1C)C(C)(C)C [Compound 40, RS3516-tLeu-NHCH3]",n.b.,237 ± 45,–,–,–
"CNC(=O)[C@@H](NC(=O)c1nn(-c2ccc(Cl)cc2)c(-n2cccc2)c1C)C(C)C [Compound 33, RS2691-Val-NHCH3]",–,–,168 ± 16,antagonists,–
"COC(=O)[C@@H](NC(=O)c1nn(-c2ccc(Cl)cc2)c(-n2cccc2)c1C)C(C)C [Compound 23, RS2691-Val-OCH3]",–,4870 ± 225,55 ± 5.2,–,–
"COC(=O)[C@@H](NC(=O)c1nn(-c2ccc(Cl)cc2Cl)c(-n2cccc2Cl)c1C)C(C)(C)C [Compound 30, RS3516-tLeu-OCH3]",–,4390 ± 344,21 ± 4.4,–,–
